Reference: US9862708B2, “Pyrazolone compounds and uses thereof” (Tempest Therapeutics, Inc., priority 2014, dated 2018)
Read-outs that look alike come from different tables or passages of the source.

Columns and labels:
Format in all cases: cell-based
[1] = target: T1, human PPARα (Homo sapiens, UniProt Q07869); test: Human PPARα Reporter Assay (luciferase, Indigo Biosciences)
T1 construct: host or cells: proprietary non-human mammalian cells
T1 sequence (Q07869 1-468): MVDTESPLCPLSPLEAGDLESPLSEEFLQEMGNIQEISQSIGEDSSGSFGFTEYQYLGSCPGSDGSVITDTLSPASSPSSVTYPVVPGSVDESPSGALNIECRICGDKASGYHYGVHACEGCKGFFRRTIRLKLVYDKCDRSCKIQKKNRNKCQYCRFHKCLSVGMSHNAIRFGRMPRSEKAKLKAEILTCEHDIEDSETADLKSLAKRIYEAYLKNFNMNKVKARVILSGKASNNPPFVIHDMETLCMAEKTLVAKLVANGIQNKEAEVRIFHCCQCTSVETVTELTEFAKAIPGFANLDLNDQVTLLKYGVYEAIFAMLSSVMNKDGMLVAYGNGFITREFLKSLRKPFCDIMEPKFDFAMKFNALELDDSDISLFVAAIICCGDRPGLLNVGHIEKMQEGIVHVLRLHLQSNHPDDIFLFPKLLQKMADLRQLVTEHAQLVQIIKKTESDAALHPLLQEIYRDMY
Method in brief: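 Non-human mammalian cells constitutively expressing human PPARα with a PPARα-responsive luciferase reporter were dosed with compounds right after plating. After overnight incubation, media removed and detection reagent added; luminescence taken as proportional to PPARα activation, agonist or antagonist mode.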

[2] = target: T2, PPAR beta/delta (Homo sapiens, UniProt Q03181); test: PPAR β/δ reporter counterscreen (Indigo Biosciences kit); settings: receptor agonist at ~EC80 for antagonist potency
T2 construct: host or cells: engineered reporter cells of the kit (analogous to the PPARα kit: non-human mammalian)
T2 sequence (Q03181 1-441): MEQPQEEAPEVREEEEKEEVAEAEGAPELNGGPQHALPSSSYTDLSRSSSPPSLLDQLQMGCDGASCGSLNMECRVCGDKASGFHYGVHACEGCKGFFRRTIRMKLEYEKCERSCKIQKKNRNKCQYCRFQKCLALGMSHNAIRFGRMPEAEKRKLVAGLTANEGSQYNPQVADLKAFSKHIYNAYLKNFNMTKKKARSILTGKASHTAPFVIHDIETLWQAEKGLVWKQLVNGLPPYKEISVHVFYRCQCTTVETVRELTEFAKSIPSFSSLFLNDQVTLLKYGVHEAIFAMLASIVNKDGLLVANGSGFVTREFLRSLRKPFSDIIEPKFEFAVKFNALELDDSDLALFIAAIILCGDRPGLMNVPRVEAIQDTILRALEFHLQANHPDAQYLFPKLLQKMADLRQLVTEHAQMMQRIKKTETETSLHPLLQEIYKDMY
Procedure: (§1) To determine species selectivity, a Mouse PPARα Reporter Assay System was used (Indigo Biosciences, Cat. #M00111). Activity of test compounds to antagonize or agonize other isoforms of human PPAR, for example β/δ and γ, were assessed using the corresponding kits from Indigo Biosciences (Cat. #IB00121 and #IB00101, respectively). In addition to PPAR activity, compounds were also screened for activity against other nuclear hormone receptors including Estrogen Receptor β, Glucocorticoid Receptor and Thyroid Receptor β using commercially available kits (Indigo Biosciences, Cat. #IB00411, IB00201 and IB01101, respectively). Each assay system from Indigo Biosciences uses technology analogous to the human
(§2) PPARα kit, with the variance being that the cells used for each assay were engineered to over-express the receptor of interest. In addition, the appropriate receptor agonist (included with each kit) was used at ˜EC80 for assays in which antagonist potency was being assessed.

[3] = target: T3, PPAR gamma (Homo sapiens, UniProt P37231); test: PPAR γ reporter counterscreen (Indigo Biosciences kit); settings: receptor agonist at ~EC80 for antagonist potency
T3 construct: host or cells: engineered reporter cells of the kit (analogous to the PPARα kit: non-human mammalian)
T3 sequence (P37231 1-505): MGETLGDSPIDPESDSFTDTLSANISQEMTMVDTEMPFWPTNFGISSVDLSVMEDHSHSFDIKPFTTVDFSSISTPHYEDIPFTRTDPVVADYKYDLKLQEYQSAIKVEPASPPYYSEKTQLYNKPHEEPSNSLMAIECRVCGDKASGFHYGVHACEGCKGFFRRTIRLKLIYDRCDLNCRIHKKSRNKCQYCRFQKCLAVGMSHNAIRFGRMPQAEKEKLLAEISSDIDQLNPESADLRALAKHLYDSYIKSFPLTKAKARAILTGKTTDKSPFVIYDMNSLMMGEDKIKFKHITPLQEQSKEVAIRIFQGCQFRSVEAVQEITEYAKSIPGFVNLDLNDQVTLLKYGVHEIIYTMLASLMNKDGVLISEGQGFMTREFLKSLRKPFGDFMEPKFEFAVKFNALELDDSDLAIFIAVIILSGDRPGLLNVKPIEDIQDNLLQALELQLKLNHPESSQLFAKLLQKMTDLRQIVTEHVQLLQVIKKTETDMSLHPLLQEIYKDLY
Procedure: as §1, §2

[4] = target: T4, Thyroid Receptor β (Homo sapiens, UniProt P10828); test: Thyroid Receptor β reporter counterscreen (Indigo Biosciences kit); settings: receptor agonist at ~EC80 for antagonist potency
T4 construct: host or cells: engineered reporter cells of the kit
T4 sequence (P10828 1-461): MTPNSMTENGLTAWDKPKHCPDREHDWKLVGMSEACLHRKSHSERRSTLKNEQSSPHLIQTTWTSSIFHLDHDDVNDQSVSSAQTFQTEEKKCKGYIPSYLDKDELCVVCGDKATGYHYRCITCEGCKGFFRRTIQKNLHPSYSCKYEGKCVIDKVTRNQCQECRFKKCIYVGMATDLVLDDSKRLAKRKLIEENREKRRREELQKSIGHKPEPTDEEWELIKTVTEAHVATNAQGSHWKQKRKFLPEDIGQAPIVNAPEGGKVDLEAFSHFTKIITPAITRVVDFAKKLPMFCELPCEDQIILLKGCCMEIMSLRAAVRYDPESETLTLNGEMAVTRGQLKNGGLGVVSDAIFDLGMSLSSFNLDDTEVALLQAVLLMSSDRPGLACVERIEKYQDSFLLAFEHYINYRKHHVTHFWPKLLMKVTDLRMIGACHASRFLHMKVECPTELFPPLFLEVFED
Procedure: as §1, §2

[5] = target: T5, Glucocorticoid Receptor (Homo sapiens, UniProt P04150); test: Glucocorticoid Receptor reporter counterscreen (Indigo Biosciences kit); settings: receptor agonist at ~EC80 for antagonist potency
T5 construct: host or cells: engineered reporter cells of the kit
T5 sequence (P04150 1-777): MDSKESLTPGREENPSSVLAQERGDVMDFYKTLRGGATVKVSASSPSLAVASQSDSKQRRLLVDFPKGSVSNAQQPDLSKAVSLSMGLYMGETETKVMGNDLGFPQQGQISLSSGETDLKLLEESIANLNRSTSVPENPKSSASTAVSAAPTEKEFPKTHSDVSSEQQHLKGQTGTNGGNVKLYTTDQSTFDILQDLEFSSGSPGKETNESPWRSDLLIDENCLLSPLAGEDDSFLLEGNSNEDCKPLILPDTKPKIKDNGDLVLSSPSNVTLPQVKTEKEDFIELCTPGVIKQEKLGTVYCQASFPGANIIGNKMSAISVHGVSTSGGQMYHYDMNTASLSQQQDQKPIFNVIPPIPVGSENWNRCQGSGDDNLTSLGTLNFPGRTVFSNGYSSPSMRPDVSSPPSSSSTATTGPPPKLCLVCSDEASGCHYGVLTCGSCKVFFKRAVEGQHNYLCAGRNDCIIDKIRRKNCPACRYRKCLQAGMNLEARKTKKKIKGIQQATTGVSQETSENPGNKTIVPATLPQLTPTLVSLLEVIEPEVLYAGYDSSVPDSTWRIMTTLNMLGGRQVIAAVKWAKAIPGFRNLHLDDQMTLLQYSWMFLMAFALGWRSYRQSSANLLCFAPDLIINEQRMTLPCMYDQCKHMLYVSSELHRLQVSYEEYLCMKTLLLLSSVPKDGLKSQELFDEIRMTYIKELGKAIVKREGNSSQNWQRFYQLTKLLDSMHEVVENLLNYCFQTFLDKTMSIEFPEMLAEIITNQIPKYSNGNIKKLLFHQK
Procedure: as §1, §2

[6] = target: T6, Estrogen Receptor β (Homo sapiens, UniProt Q92731); test: Estrogen Receptor β reporter counterscreen (Indigo Biosciences kit); settings: receptor agonist at ~EC80 for antagonist potency
T6 construct: host or cells: engineered reporter cells of the kit
T6 sequence (Q92731 whole entry): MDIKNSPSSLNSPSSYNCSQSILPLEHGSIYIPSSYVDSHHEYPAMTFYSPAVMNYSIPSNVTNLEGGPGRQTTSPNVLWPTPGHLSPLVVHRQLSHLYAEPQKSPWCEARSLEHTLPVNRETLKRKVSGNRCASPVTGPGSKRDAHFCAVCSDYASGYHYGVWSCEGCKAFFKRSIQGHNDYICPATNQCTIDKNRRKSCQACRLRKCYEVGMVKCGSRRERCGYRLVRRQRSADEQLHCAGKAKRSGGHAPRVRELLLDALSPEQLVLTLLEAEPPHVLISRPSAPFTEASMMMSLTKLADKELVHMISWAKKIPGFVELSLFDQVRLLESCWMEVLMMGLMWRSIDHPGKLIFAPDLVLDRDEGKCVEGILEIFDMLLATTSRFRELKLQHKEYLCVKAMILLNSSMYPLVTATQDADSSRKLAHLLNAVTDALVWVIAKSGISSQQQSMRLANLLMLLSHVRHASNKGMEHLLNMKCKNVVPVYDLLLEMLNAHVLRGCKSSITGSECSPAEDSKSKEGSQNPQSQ
Procedure: as §1, §2

How did the IC50 ([1]; Target Selectivity - Counterscreen table, read-out: PPAR alpha IC50) turn out when `CC1(C)C(=O)N(c2ccc(C(F)(F)F)cc2)N=C1CCCc1ccc(OC2(C(=O)O)CCC2)cc1` [Example 50, 1-(4-(3-(4,4-dimethyl-5-oxo-1-(4-(trifluoromethyl)phenyl)-4,5-dihydro-1H-pyrazol-3-yl)propyl)phenoxy)cyclobutanecarboxylic acid] was run?
Its IC50 is 0.0024 µM.

What about the IC50 ([1]; antagonism, luciferase reporter cells, overnight incubation, read-out: PPARα IC50) of the same molecule?
The IC50 was 0.0024 µM.

And the IC50 [2]?
The IC50 was 22 µM.

And the IC50 [3]?
The IC50 was 56 µM.

And the IC50 [4]?
Its IC50 is 61 µM.

What about the IC50 [5] of the same molecule?
The IC50 was 36 µM.

What about the IC50 [6] of the same molecule?
The IC50 was 36 µM.
